Assay [1] concerns C1QBP; histone H3 (U2OS/GFP-VCF1 cells). Briefly: GFP IP immunoblot for C1QBP and Histone H3. Type of assay: binding, human. To be noted: U2OS/GFP-VCF1 WT. As to the method:
Immunoblotting was performed as previously described. Immunoprecipitation (IP) of HA-tagged proteins was performed using Anti-HA Affinity matrix (Roche) under denaturing conditions, unless otherwise stated. GFP-trap and […] Fab-trap agarose (Chromotek) were used according to manufacturer’s instructions. Cell lysis was performed using RIPA buffer (140 mM NaCl; 10 mM Tris-HCl, pH 8.0; 0.1% sodium deoxycholate; 1% Triton X-100; 0.1% SDS; 1 mM EDTA; 0.5 mM EGTA) or EBC buffer (50 mM Tris, pH 7.5; 150 mM NaCl; 1 mM EDTA; 0.5% NP-40, 1 mM DTT). IPs were washed in non-denaturing buffer (50 mM Tris-HCl, pH 7.5; 150 mM NaCl; 0.5 mM EDTA). Cell lysis and IP under partially denaturing conditions were performed using denaturing buffer (20 mM Tris-HCl, pH 7.5; 50 mM NaCl; 0.5% sodium deoxycholate; 0.5% NP-40; 0.5% SDS; 1 mM EDTA). All lysis and wash buffers were supplemented with 1 mM fresh PMSF Protease Inhibitor (Thermo), complete EDTA-free protease inhibitor Cocktail Tablets (Roche), 1.25 mM N-ethylmaleimide (Sigma) and 50 µM PR-619 (Calbiochem).

Another assay relates to p97 (His6-p97 Y143A). Nature of the assay: SPR: binding to immobilized His6-p97 Y143A mutant. Set-up: species or system human. To be noted: full-length VCF1 up to 100 nM. As to the method: Surface Plasmon Resonance (SPR)
All SPR experiments were performed at 25 °C on a Biacore T200 instrument equipped with CM5 or CM7 sensor chips (Cytiva, Uppsala, Sweden). SPR running buffers and amine-coupling reagents (N-ethyl-N’-(3-dimethlyaminoproply)carbodiimide (EDC), N-hydroxysuccinimide (NHS), and ethanolamine HCl) were purchased from Cytiva. 1x PBS-P (11.9 mM NaH2PO4-Na2HPO4, pH 7.4; 137 mM NaCl; 2.7 mM KCl; 0.005% surfactant P20) supplemented with 0.5 mM TCEP was used as running buffer for the immobilization and the binding experiments with Strep-HA-VCF1 full-length proteins. For the VCF1 C-terminal peptide binding studies, 2% DMSO was additionally included in the running buffer. Eight solvent correction samples ranging from 1.5% DMSO to 2.8% DMSO prepared in either PBS-P, 0.5 mM TCEP or Tris-based buffer were used to correct buffer/DMSO mismatches. […] The dissociation rate of the p97-VCF1 complexes was monitored for 400 s. […] Binding experiments were measured in triplicates. […] The equilibrium dissociation contants, Kd, were determined by plotting the equilibrium responses levels (Req) against […] and fitting to a steady-state model.

For “VCF1: human FAM104A isoform 1, 186 amino acids (UniProt Q969W3); recombinant Strep-HA-tagged”, in assay [1], the “C1QBP in VCF1 IP” value is recorded as “unable to detect C1QBP in VCF1 IPs”. The “interaction with histone H3” value in assay [1] was “weak interaction between VCF1 and histone H3”. For the same substance, the results for the “binding to p97 Y143A (in words)” value in the assay with p97 (His6-p97 Y143A) and in the assay with p97 (His6-p97 Y143A) (listed as Strep-HA-VCF1 WT) were “did not show detectable binding affinity” and “no dose-dependent response was observed”, respectively.

For the origin of these results see article PMC10950897, “VCF1 is a p97/VCP cofactor promoting recognition of ubiquitylated p97-UFD1-NPL4 substrates” (Nature Communications, 2024).
